We go through 33 molecules from patent US10227345B2, “Compounds and methods for inhibiting fascin” (Cornell University, priority 2014, dated 2019).

The target of this assay is T1, human fascin 1 (Homo sapiens, UniProt Q16658).
T1 construct: GST (N, cleaved yes); made in house; host or cells: Escherichia coli BL21/DE3 (pGEX4T-fascin 1 plasmid)
Briefly: Fascin inhibition (actin bundling) assay, image-based. It counts as biochemical. The conditions noted are these: in the presence of 50 μm of the compound relative to bundle activity when the compound was not present; read-out: Inhibition (percentage reduction of bundle activity). As to the method: Recombinant human fascin 1 was expressed as a GST fusion protein in BL21 Escherichia coli. One liter of 2YT medium with ampicillin was inoculated overnight with 3 mL of BL21/DE3 culture transformed with pGEX4T-fascin 1 plasmid and grown at 37° C. until attenuance at 600 nm (D600) reached about 0.8. The culture was then transferred to 18° C. and induced by the addition of 0.1 mM isopropyl β-d-thiogalactoside (IPTG) for 12 h. Bacteria were harvested by centrifugation at 5,000 r.p.m. for 10 min. The pellets were suspended in 30 mL of PBS supplemented with 0.2 mM PMSF, 1 mM DTT, 1% (v/v) Triton X-100 and 1 mM EDTA. After sonication, the suspension was centrifuged at 15,000 r.p.m. for 30 min to remove the cell debris. The supernatant was then incubated for 2 h with 4 mL of glutathione beads (Sigma) at 4° C. After extensive washing with PBS, the beads were resuspended in 10 mL of thrombin cleavage buffer (20 mM Tris-HCl pH 8.0, 150 mM NaCl, 2 mM CaCl2, 1 mM DTT). Fascin was released from the beads by incubation overnight with 40-100 U of thrombin at 4° C. After centrifugation, 0.2 mM PMSF was added to the supernatant to inactivate the remnant thrombin activity. The fascin protein was further concentrated with a Centricon® (Boca Raton, Fla.) filter to about 50 mg/mL.
Representative compounds described herein were tested for fascin inhibition activity. Purified fascin protein (15 μL of 0.5 μM) in buffer (100 mM KCl, 20 mM Tris/HCl, pH 7.5, 2 mM MgCl2) was added into each well of a clear 384-well flat-bottom plate (Corning) using Thermo Multidrop Combi (Fisher). Compound solutions (5 mM stock, 180 nL) were pin transferred from stock 384-well plates into the 384-well assay plates and incubated for 30 min. Then 15 μL of 0.5 μM polymerized actin (in 100 mM KCl, 20 mM Tris/HCl, pH 7.5, 2 mM MgCl2, 1 mM DTT, 1 mM ATP) (Cytoskeleton Inc.) was added, resulting in 30 μM final concentration for chemical compounds. […] Mixed solution (25 μL) was then transferred to one well in a black 384-well plate coated with poly-D-lysine, and stained actin bundles or F-actin would stick onto the poly-D-lysine plates. After the plates were thoroughly washed with 1×PBS for 3 times, the plate was imaged using an ImageXpress Micro High Content Screening System (Molecular devices). The images were processed and analyzed using MetaMorph software. The raw image data for each well was background-corrected by subtraction of the median intensities across all wells on the plate. The background-corrected data was used to compute the bundle length for each well. The negative control wells were employed for quality control: multiple DMSO-only control wells (16 wells/plate) were present on each assay plate.

As a reminder, the inhibition is the drop in the measured response relative to a control, in per cent.

Some results are limits rather than exact numbers.

For `Nc1nn(Cc2ccc(C(F)(F)F)cc2)c2cccc(Cl)c12` [Compound 116, 4-chloro-1-(4-(trifluoromethyl)benzyl)-1H-indazol-3-amine], the inhibition at 50 µM was less than 10%.

Turning to `Cc1nocc1C(=O)Nc1nn(Cc2ccc(C(F)(F)F)cc2)c2cccc(Cl)c12` [Compound 118, N-(4-chloro-1-(4-(trifluoromethyl)benzyl)-1H-indazol-3-yl)-3-methylisoxazole-4-carboxamide], the inhibition at 50 µM was less than 10%. Take `Nc1nn(Cc2ccc(C(F)(F)F)cc2)c2ccccc12` [Compound 59, 1-(4-(trifluoromethyl)benzyl)-1H-indazol-3-amine]: the inhibition at 50 µM was less than 10%.

Consider `O=C(Nc1nn(Cc2ccc(C(F)(F)F)cc2)c2ccccc12)c1csc(Cl)n1` [Compound 24, 2-chloro-N-(1-(4-(trifluoromethyl)benzyl)-1H-indazol-3-yl)thiazole-4-carboxamide], for which the inhibition at 50 µM is less than 10%. The figure for `Cc1nocc1C(=O)Nc1nn(Cc2ccc(C#N)cc2)c2ccccc12` [Compound 86, N-(1-(4-cyanobenzyl)-1H-indazol-3-yl)-3-methylisoxazole-4-carboxamide] is less than 10%.

On to `O=C(Nc1nn(Cc2ccc(C(F)(F)F)cc2)c2ccccc12)c1ccsc1Cl` [Compound 38, 2-chloro-N-(1-(4-(trifluoromethyl)benzyl)-1H-indazol-3-yl)thiophene-3-carboxamide], for which the inhibition at 50 µM is less than 10%. The figure for `CC(=O)Nc1nn(Cc2ccc(C(F)(F)F)cc2)c2cncc(Cl)c12` [Compound 150, N-(1-(4-(trifluoromethyl)benzyl)-4-chloro-1H-pyrazolo(3,4-c)pyridyl)-3-acetamide] is 10%; for `FC(F)(F)c1ccc(Cn2nc(-c3ccoc3)c3ccccc32)cc1` [Compound 147, 3-(furan-3-yl)-1-(4-(trifluoromethyl)benzyl)-1H-indazole] it is 10%; for `O=C(Nc1nn(Cc2ccc(F)cc2)c2ccccc12)c1ccno1` [Compound 73, N-(1-(4-fluorobenzyl)-1H-indazol-3-yl)isoxazole-5-carboxamide] it is 50%.

Turning to `O=C(Nc1nn(Cc2cccc(C(F)(F)F)c2)c2ccccc12)c1ccoc1` [Compound 48, N-(1-(3-(trifluoromethyl)benzyl)-1H-indazol-3-yl)furan-3-carboxamide], the inhibition at 50 µM was less than 10%.

For `Cc1ncsc1C(=O)Nc1nn(Cc2ccc(Cl)cc2)c2ccccc12` [Compound 68, N-(1-(4-chlorobenzyl)-1H-indazol-3-yl)-4-methylthiazole-5-carboxamide], the inhibition at 50 µM came out at 50%. Under `Cc1occc1C(=O)Nc1nn(Cc2ccc(F)cc2)c2ccccc12` [Compound 74, N-(1-(4-fluorobenzyl)-1H-indazol-3-yl)-2-methylfuran-3-carboxamide] stands less than 10%. As to `O=C(Nc1nn(Cc2ccc(C(F)(F)F)cc2)c2ccccc12)c1ccccc1OC(F)(F)F` [Compound 52, 2-(trifluoromethoxy)-N-(1-(4-(trifluoromethyl)benzyl)-1H-indazol-3-yl)benzamide], the inhibition at 50 µM was less than 10%. In the case of `Cc1ccc2c(NC(=O)c3ccoc3C)nn(Cc3ccc(C(F)(F)F)cc3)c2n1` [Compound 134, 2-methyl-N-(6-methyl-1-(4-(trifluoromethyl)benzyl)-1H-pyrazolo[3,4-b]pyridin-3-yl)furan-3-carboxamide], the inhibition at 50 µM was less than 10%. The figure for `Cc1ccc(Cn2nc(NC(=O)c3scnc3C)c3ccccc32)cc1` [Compound 82, 4-methyl-N-(1-(4-methylbenzyl)-1H-indazol-3-yl)thiazole-5-carboxamide] is less than 10%. Under `Cc1ccc(Cn2nc(NC(=O)c3ccno3)c3ccccc32)cc1` [Compound 80, N-(1-(4-methylbenzyl)-1H-indazol-3-yl)isoxazole-5-carboxamide] stands 50%. With `O=C(Nc1nn(Cc2ccc(C(F)(F)F)cc2)c2ccccc12)c1cccnc1` [Compound 54, N-(1-(4-(trifluoromethyl)benzyl)-1H-indazol-3-yl)nicotinamide], the inhibition at 50 µM is less than 10%.

With `Cc1ccoc1C(=O)Nc1nn(Cc2ccc(C(F)(F)F)cc2)c2ccccc12` [Compound 29, 3-methyl-N-(1-(4-(trifluoromethyl)benzyl)-1H-indazol-3-yl)furan-2-carboxamide], the inhibition at 50 µM is less than 10%. On to `N#Cc1ccc(Cn2nc(NC(=O)c3cccnn3)c3ccccc32)cc1` [Compound 90, N-(1-(4-cyanobenzyl)-1H-indazol-3-yl)pyridazine-3-carboxamide], for which the inhibition at 50 µM was less than 10%. Take `Cc1ncoc1C(=O)Nc1nn(Cc2ccc(C(F)(F)F)cc2)c2ccccc12` [Compound 34, 4-methyl-N-(1-(4-(trifluoromethyl)benzyl)-1H-indazol-3-yl)oxazole-5-carboxamide]: the inhibition at 50 µM was 80%. Under `Cc1ccc2c(NC(=O)c3conc3C)nn(Cc3ccc(C(F)(F)F)cc3)c2n1` [Compound 133, 3-methyl-N-(6-methyl-1-(4-(trifluoromethyl)benzyl)-1H-pyrazolo[3,4-b]pyridin-3-yl)isoxazole-4-carboxamide] stands less than 10%; under `O=C(Nc1nn(Cc2ccc(C(F)(F)F)cc2)c2ccccc12)c1cccc(Cl)n1` [Compound 8, 6-chloro-N-(1-(4-(trifluoromethyl)benzyl)-1H-indazol-3-yl)picolinamide], less than 10%; under `O=C(Nc1nn(Cc2ccc(C(F)(F)F)cc2)c2ccccc12)c1ccccc1OC(F)F` [Compound 47, 2-(difluoromethoxy)-N-(1-(4-(trifluoromethyl)benzyl)-1H-indazol-3-yl)benzamide], less than 10%. Under `O=C(Nc1nn(Cc2ccc(F)cc2)c2ccccc12)c1ccoc1` [Compound 71, N-(1-(4-fluorobenzyl)-1H-indazol-3-yl)furan-3-carboxamide] stands less than 10%; under `O=C(Nc1nn(Cc2ccc(C(F)(F)F)cc2)c2ccccc12)c1cccc(F)c1F` [Compound 20, 2,3-difluoro-N-(1-(4-(trifluoromethyl)benzyl)-1H-indazol-3-yl)benzamide], less than 10%; under `FC(F)(F)c1ccc(Cn2nc(-c3cccc4ccccc34)c3ccccc32)cc1` [Compound 145, 3-(naphthalen-1-yl)-1-(4-(trifluoromethyl)benzyl)-1H-indazole], 10%.

On to `O=C(Nc1nn(Cc2ccc(C(F)(F)F)cc2)c2ccccc12)c1ccccc1Br` [Compound 46, 2-bromo-N-(1-(4-(trifluoromethyl)benzyl)-1H-indazol-3-yl)benzamide], for which the inhibition at 50 µM is less than 10%.

Turning to `Cc1nocc1C(=O)Nc1nn(Cc2ccc(C(F)(F)F)nc2)c2ccc(C#N)cc12` [Compound 99, N-(5-cyano-1-((6-(trifluoromethyl)pyridin-3-yl)methyl)-1H-indazol-3-yl)-3-methylisoxazole-4-carboxamide], the inhibition at 50 µM was less than 10%. Under `O=C(Nc1cn(Cc2ccc(C(F)(F)F)cc2)c2ccccc12)c1ccoc1` [Compound 105, N-(1-(4-(trifluoromethyl)benzyl)-1H-indol-3-yl)furan-3-carboxamide] stands less than 10%.

In the case of `O=C(Nc1nn(Cc2ccc(C(F)(F)F)cc2)c2ccccc12)c1ccc(F)cc1` [Compound 13], the inhibition at 50 µM is less than 10%. In the case of `N#Cc1ccc2c(c1)c(N)nn2Cc1ccc(C(F)(F)F)nc1` [Compound 97, 3-amino-1-((6-(trifluoromethyl)pyridin-3-yl)methyl)-1H-indazole-5-carbonitrile], the inhibition at 50 µM is less than 10%. Under `O=C(Nc1nn(Cc2ccc(C(F)(F)F)cc2)c2ccccc12)c1cnc[nH]1` [Compound 26, N-(1-(4-(trifluoromethyl)benzyl)-1H-indazol-3-yl)-1H-imidazole-5-carboxamide] stands less than 10%. The figure for `Cc1ncsc1C(=O)Nc1nn(Cc2ccc(C(F)(F)F)cc2)c2cc(C(F)(F)F)ccc12` [Compound 110, 4-methyl-N-(6-(trifluoromethyl)-1-(4-(trifluoromethyl)benzyl)-1H-indazol-3-yl)thiazole-5-carboxamide] is less than 10%.
